Assay results: ChEMBL document CHEMBL5608177, “Antitumor activity and transcriptome sequencing (RNA-seq) analyses of hepatocellular carcinoma cells in response to exposure triterpene-nucleoside conjugates” (Eur J Med Chem, 2024)
Active and inactive are the calls of the source. The rule behind the calls is not given here.

Key:
KYSE-150 cell line = assay: Antiproliferative activity against human KYSE-150 cell line assessed as inhibition of cell growth incubated for 48 hrs by CCK-8 reagent based spectrophotometric analysis; type: functional; settings: KYSE-150, 48 h
HeLa = assay: Antiproliferative activity against human HeLa cells assessed as inhibition of cell growth incubated for 48 hrs by CCK-8 reagent based spectrophotometric analysis; type: functional
HepG2 = assay: Antiproliferative activity against human HepG2 cells assessed as inhibition of cell growth incubated for 48 hrs by CCK-8 reagent based spectrophotometric analysis; type: functional; settings: HepG2, 48 h
SMMC-7721 [1] = assay: Antiproliferative activity against human SMMC-7721 cells assessed as inhibition of cell growth incubated for 48 hrs by CCK-8 reagent based spectrophotometric analysis; type: functional; settings: SMMC-7721, 48 h
MCF7 = assay: Antiproliferative activity against human MCF7 cells assessed as inhibition of cell growth incubated for 48 hrs by CCK-8 reagent based spectrophotometric analysis; type: functional; settings: MCF7, 48 h
PC-3 = assay: Antiproliferative activity against human PC-3 cells assessed as inhibition of cell growth incubated for 48 hrs by CCK-8 reagent based spectrophotometric analysis; type: functional; settings: PC-3, 48 h
SW-620 = assay: Antiproliferative activity against human SW620 cells assessed as inhibition of cell growth incubated for 48 hrs by CCK-8 reagent based spectrophotometric analysis; type: functional; settings: SW-620, 48 h
A549 = assay: Antiproliferative activity against human A549 cells assessed as inhibition of cell growth incubated for 48 hrs by CCK-8 reagent based spectrophotometric analysis; type: functional; settings: A549, 48 h
SMMC-7721 [2] = assay: Antitumor activity against human SMMC-7721 cells xenografted in BALB/c mouse assessed as reduction in tumor weight at 25 mg/kg,ip administrated 3 times weekly for 3 weeks (reference value: 0.573 +/- 0.137 g); type: functional
SMMC-7721 [3] = assay: Antitumor activity against human SMMC-7721 cells xenografted in BALB/c mouse assessed as inhibition of tumor growth at 25 mg/kg,ip administrated 3 times weekly for 3 weeks relative to control; type: functional; parameters: scale not given: the % may be the effect or the level left
SMMC-7721 [4] = assay: Antitumor activity against human SMMC-7721 cells xenografted in BALB/c mouse assessed as reduction in tumor growth at 25 mg/kg,ip administrated 3 times weekly for 3 weeks; type: functional, organism-based
SMMC-7721 [5] = assay: Antitumor activity against human SMMC-7721 cells xenografted in BALB/c mouse assessed as reduction in tumor weight at 25 mg/kg,ip administrated 3 times weekly for 3 weeks; type: functional, organism-based
[6] = Aqueous solubility of the compound in […] by HPLC analysis; type: physicochemical

Row | Structure (SMILES) | IC50 (KYSE-150 cell line) [µM] | IC50 (HeLa) [µM] | IC50 (HepG2) [µM] | IC50 (SMMC-7721 [1]) [µM] | IC50 (MCF7) [µM] | IC50 (PC-3) [µM] | IC50 (SW-620) [µM] | IC50 (A549) [µM] | Activity (SMMC-7721 [2]) [g] | Activity (SMMC-7721 [3]) [%] | Activity (SMMC-7721 [4]) | Activity (SMMC-7721 [5]) | solubility [6] [µM]
1 | C=C(C)[C@@H]1CC[C@]2(C(=O)OC)CC[C@]3(C)[C@H](CC[C@@H]4[C@@]5(C)C[C@@H](Cc6cn([C@]7(CO)O[C@@H](n8ccc(N)nc8=O)[C@@H](F)[C@@H]7O)nn6)C(=O)C(C)(C)[C@@H]5CC[C@]43C)[C@@H]12 | 19.2 | 28.2 | 69.9 | 52.7 | 61.4 | > 100 | 31.2 | > 100 |  |  |  |  | 
2 | CC(=O)O[C@H]1C(=O)[C@@]2(C)[C@H]([C@H](OC(=O)c3ccccc3)[C@]3(O)C[C@H](OC(=O)[C@H](O)[C@@H](NC(=O)c4ccccc4)c4ccccc4)C(C)=C1C3(C)C)[C@]1(OC(C)=O)CO[C@@H]1C[C@@H]2O [PACLITAXEL] |  |  |  |  |  |  |  |  | 0.22 | 61.6 | inactive | inactive | 
3 | C=C(C)[C@@H]1CC[C@]2(C(=O)O)CC[C@]3(C)[C@H](CC[C@@H]4[C@@]5(C)C[C@@H](Cc6cn([C@]7(CO)O[C@@H](n8ccc(N)nc8=O)[C@H](O)[C@@H]7O)nn6)[C@H](O)C(C)(C)[C@@H]5CC[C@]43C)[C@@H]12 | 42.4 | 15.3 | 72.7 | 17 | 62 | 86.2 | 28.1 | > 100 |  |  |  |  | 
4 | C=C(C)[C@@H]1CC[C@]2(C(=O)OC)CC[C@]3(C)[C@H](CC[C@@H]4[C@@]5(C)C[C@@H](Cc6cn([C@]7(CO)O[C@@H](n8ccc(N)nc8=O)[C@@H](F)[C@@H]7O)nn6)[C@H](O)C(C)(C)[C@@H]5CC[C@]43C)[C@@H]12 | 29.3 | 24.1 | 55.8 | 70.2 | 70.2 | > 100 | 18 | > 100 |  |  |  |  | 
5 | C=C(C)[C@@H]1CC[C@]2(C(=O)O)CC[C@]3(C)[C@H](CC[C@@H]4[C@@]5(C)C[C@@H](Cc6cn([C@]7(CO)O[C@@H](n8ccc(O)nc8=O)[C@H](O)[C@@H]7O)nn6)[C@H](O)C(C)(C)[C@@H]5CC[C@]43C)[C@@H]12 | > 100 | > 100 | > 100 | > 100 | > 100 | > 100 | > 100 | > 100 |  |  |  |  | 
6 | C=C(C)[C@@H]1CC[C@]2(C(=O)OC)CC[C@]3(C)[C@H](CC[C@@H]4[C@@]5(C)C[C@@H](Cc6cn([C@]7(CO)O[C@@H](n8ccc(O)nc8=O)[C@H](O)[C@@H]7O)nn6)[C@H](O)C(C)(C)[C@@H]5CC[C@]43C)[C@@H]12 | 20.3 | 20 | 44.6 | 37.3 | 26.6 | 41 | 25.9 | 53.2 |  |  |  |  | 
7 | C=C(C)[C@@H]1CC[C@]2(C(=O)O)CC[C@]3(C)[C@H](CC[C@@H]4[C@@]5(C)C[C@@H](Cc6cn([C@]7(CO)O[C@@H](n8ccc(O)nc8=O)[C@@H](F)[C@@H]7O)nn6)[C@H](O)C(C)(C)[C@@H]5CC[C@]43C)[C@@H]12 | > 100 | > 100 | > 100 | > 100 | > 100 | > 100 | > 100 | > 100 |  |  |  |  | 
8 | C=C(C)[C@@H]1CC[C@]2(C(=O)OC)CC[C@]3(C)[C@H](CC[C@@H]4[C@@]5(C)C[C@@H](Cc6cn([C@]7(CO)O[C@@H](n8ccc(O)nc8=O)[C@H](O)[C@@H]7O)nn6)C(=O)C(C)(C)[C@@H]5CC[C@]43C)[C@@H]12 | 36.4 | 27.9 | 62.9 | 40.5 | 55.3 | 45.5 | 19.1 | 70.8 |  |  |  |  | 
9 | Cc1cn([C@H]2C[C@H](N=[N+]=[N-])[C@@H](CO)O2)c(=O)[nH]c1=O [ZIDOVUDINE] | > 100 | > 100 | > 100 | > 100 | > 100 | > 100 | > 100 | 20.7 |  |  |  |  | 
10 | C=C(C)[C@@H]1CC[C@]2(C(=O)OC)CC[C@]3(C)[C@H](CC[C@@H]4[C@@]5(C)C[C@@H](Cc6cn([C@]7(CO)O[C@@H](n8ccc(N)nc8=O)[C@H](O)[C@@H]7O)nn6)C(=O)C(C)(C)[C@@H]5CC[C@]43C)[C@@H]12 | 68.7 | 40.4 | > 100 | 68.5 | > 100 | > 100 | 35.8 | > 100 |  |  |  |  | 
11 | C=C(C)[C@@H]1CC[C@]2(C(=O)O)CC[C@]3(C)[C@H](CC[C@@H]4[C@@]5(C)CC[C@H](O)C(C)(C)[C@@H]5CC[C@]43C)[C@@H]12 [BETULINIC ACID] | 23.9 | 31.3 | 40 | 43.6 | 54.8 | > 100 | 54.3 | 69.8 |  |  |  |  | < 0.11
12 | C=C(C)[C@@H]1CC[C@]2(C(=O)OC)CC[C@]3(C)[C@H](CC[C@@H]4[C@@]5(C)C[C@@H](Cc6cn([C@]7(CO)O[C@@H](n8ccc(N)nc8=O)[C@H](O)[C@@H]7O)nn6)[C@H](O)C(C)(C)[C@@H]5CC[C@]43C)[C@@H]12 | 20.7 | 46.2 | 85.7 | 67.3 | 87.6 | > 100 | 48.9 | > 100 |  |  |  |  | 
13 | C=C(C)[C@@H]1CC[C@]2(C(=O)OC)CC[C@]3(C)[C@H](CC[C@@H]4[C@@]5(C)C[C@@H](Cc6cn([C@]7(CO)O[C@@H](n8ccc(O)nc8=O)[C@@H](F)[C@@H]7O)nn6)[C@H](O)C(C)(C)[C@@H]5CC[C@]43C)[C@@H]12 | 10.7 | 15.1 | 37.5 | 24.5 | 23.3 | 23.5 | 15.2 | 36.4 |  |  |  |  | 
14 | C=C(C)[C@@H]1CC[C@]2(C(=O)O)CC[C@]3(C)[C@H](CC[C@@H]4[C@@]5(C)C[C@@H](Cc6cn([C@]7(CO)O[C@@H](n8ccc(N)nc8=O)[C@@H](F)[C@@H]7O)nn6)[C@H](O)C(C)(C)[C@@H]5CC[C@]43C)[C@@H]12 | > 100 | > 100 | > 100 | > 100 | > 100 | > 100 | > 100 | > 100 |  |  |  |  | 
15 | C=C(C)[C@@H]1CC[C@]2(C(=O)O)CC[C@]3(C)[C@H](CC[C@@H]4[C@@]5(C)C[C@@H](Cc6cn([C@H]7C[C@H](n8cc(C)c(O)nc8=O)O[C@@H]7CO)nn6)[C@H](O)C(C)(C)[C@@H]5CC[C@]43C)[C@@H]12 | 7.53 | 16.4 | 38.4 | 15 | 7.01 | 26.6 | 17.5 | 64.4 |  |  |  |  | 
16 | C=C(C)[C@@H]1CC[C@]2(C(=O)OC)CC[C@]3(C)[C@H](CC[C@@H]4[C@@]5(C)C[C@@H](Cc6cn([C@H]7C[C@H](n8cc(C)c(O)nc8=O)O[C@@H]7CO)nn6)[C@H](O)C(C)(C)[C@@H]5CC[C@]43C)[C@@H]12 | 7.82 | 20.6 | 19.5 | 32.7 | 39.4 | 18.1 | 8.75 | 41.2 |  |  |  |  | 
